From ChEMBL document CHEMBL1201862, “PubChem BioAssay data set” (2004) come the findings set out here.

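Where inhibition never reached the appropriate level, the endpoint shown equals the highest concentration tested. Otherwise, values were interpolated linearly from a five-concentration, 48-hour dose response in 96-well plates. GI50 = concentration required for 50% inhibition of growth.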 Activity calls are given as the source filed them. Rule as the data show it: active = GI50 up to about 1.1 µM and inactive = higher.

Test systems include ACHN; NCI-H460; HL-60; UACC-62; Malme-3M; HT-29; SK-MEL-2; OVCAR-4; SN12C; SW-620; SNB-75; 786-0; SK-MEL-5; UO-31; HOP-92; OVCAR-3; HCT-15; NCI-H522.
Test in all cases: NCI tumour cell line growth inhibition, 48 h

Regarding `CCOC(=O)C1=C(C)C2C3C(=O)NC(=O)C3C1(C)C1C(=O)NC(=O)C21` (centres undefined), the GI50 in the experiment with ACHN, with NCI-H460, in the experiment on HL-60, in the experiment with UACC-62, in the experiment on Malme-3M and in the experiment with HT-29 was > 100 µM (inactive) each time. Further, the GI50 in the experiment on SK-MEL-2, in the experiment on OVCAR-4, in the experiment with SN12C, in the experiment on SW-620, in the experiment with SNB-75 and in the experiment on 786-0 was > 100 µM (inactive) each time. In addition, the GI50 in the experiment with SK-MEL-5 is > 100 µM (inactive); in the experiment on UO-31, > 100 µM (inactive); in the experiment on HOP-92, > 100 µM (inactive); in the experiment on OVCAR-3 it was 59.7 µM (inactive); with HCT-15 it was above 100 µM.

For the compound `COC(=O)[C@]1(C)CCC[C@]2(C)C3CC4OOC3(C=C4C(C)(C)O)CCC21` (some centres undefined), the GI50 with ACHN is 47.8 µM (inactive); in the experiment on NCI-H460, 33.5 µM (inactive); with HL-60, 14.3 µM (inactive); in the experiment with UACC-62, 29.2 µM (inactive); with Malme-3M, > 100 µM (inactive); in the experiment with HT-29, 22.6 µM (inactive). Moreover, the GI50 was > 100 µM (inactive) in the experiment on SK-MEL-2; 72.9 µM (inactive) in the experiment with OVCAR-4; > 100 µM (inactive) with SN12C; 36.1 µM (inactive) in the experiment on SW-620; 30.1 µM (inactive) with 786-0; 34.6 µM (inactive) with SK-MEL-5. Further, the GI50 is > 10 µM (inactive) with UO-31, 20.2 µM (inactive) in the experiment with NCI-H522, > 100 µM (inactive) in the experiment with OVCAR-3 and 37.8 µM in the experiment on HCT-15.

Take `COC(=O)C(=O)C(C(=O)C(=O)Nc1cc(Cl)c(Cl)cc1Cl)c1nc2ccc([N+](=O)[O-])cc2nc1O` (centres undefined): the GI50 in the experiment with ACHN, with UACC-62, in the experiment on Malme-3M, in the experiment on SK-MEL-2, with OVCAR-4 and with SN12C was > 100 µM (inactive) each time. The GI50 in the experiment on SW-620 was > 100 µM (inactive); in the experiment with 786-0 it was > 100 µM (inactive); in the experiment on SK-MEL-5, > 100 µM (inactive); with UO-31 it was 51.4 µM (inactive); in the experiment on NCI-H522, 46.9 µM (inactive); in the experiment on HCT-15, above 100 µM.

`COc1ccc(/C(=C\c2cc(OC)c(OC)c(OC)c2)C(=O)O)cc1`: the GI50 in the experiment on ACHN is 72.8 µM (inactive); in the experiment on NCI-H460, 35.6 µM (inactive); in the experiment on HL-60 it was 21.3 µM (inactive); with UACC-62, 37 µM (inactive); in the experiment with Malme-3M, 55.3 µM (inactive); with HT-29, 35.6 µM (inactive). In addition, the GI50 with OVCAR-4 was 85.7 µM (inactive); in the experiment with SN12C, 37.9 µM (inactive); in the experiment on SW-620, 35 µM (inactive); in the experiment on SNB-75 it was 25.6 µM (inactive); with 786-0, 38 µM (inactive); with SK-MEL-5, 16 µM (inactive). For the same compound, the GI50 with UO-31 was 25.6 µM (inactive); in the experiment with HOP-92, 33.8 µM (inactive); with NCI-H522 it was 21 µM (inactive); in the experiment on OVCAR-3, 32 µM (inactive); in the experiment on HCT-15 it was 32.1 µM.

Turning to `CCOC(=O)c1cc(=O)n(C)c(=O)n1C`, the GI50 with ACHN, in the experiment on NCI-H460, with UACC-62, in the experiment with Malme-3M, with HT-29 and in the experiment with SK-MEL-2 was > 100 µM (inactive) each time. Moreover, the GI50 in the experiment with OVCAR-4, in the experiment on SN12C, in the experiment with SW-620, in the experiment with SNB-75, in the experiment on 786-0 and in the experiment on SK-MEL-5 was > 100 µM (inactive) each time. In addition, the GI50 with UO-31 was > 100 µM (inactive); in the experiment with HOP-92, > 100 µM (inactive); in the experiment on NCI-H522 it was > 100 µM (inactive); with OVCAR-3 it was > 100 µM (inactive); in the experiment on HCT-15, above 100 µM.

With `O=C1OCC2C1C1c3ccccc3C(O)c3ccccc3C21` (centres undefined), the GI50 in the experiment on ACHN, in the experiment with NCI-H460, with HL-60, in the experiment with UACC-62, in the experiment with Malme-3M and in the experiment on HT-29 was > 100 µM (inactive) in each case. Further, the GI50 with SK-MEL-2, in the experiment on OVCAR-4, in the experiment with SN12C, in the experiment with SW-620, with SNB-75 and in the experiment on 786-0 was > 100 µM (inactive) throughout. Also, the GI50 in the experiment with SK-MEL-5 is > 100 µM (inactive); with UO-31 it was > 100 µM (inactive); in the experiment with HOP-92, > 100 µM (inactive); in the experiment on OVCAR-3 it was > 100 µM (inactive); in the experiment on HCT-15, above 100 µM.

`N#CC(C(=N/NC(N)=S)/C(=N/NC(N)=S)C(C#N)c1ccc(Cl)cc1)c1ccc(Cl)cc1` (centres undefined): the GI50 in the experiment with ACHN was > 100 µM (inactive); with NCI-H460 it was > 100 µM (inactive); with UACC-62 it was 59.6 µM (inactive); in the experiment on Malme-3M, > 100 µM (inactive); with HT-29 it was > 100 µM (inactive); with SK-MEL-2, > 100 µM (inactive). The GI50 with OVCAR-4 was > 100 µM (inactive); with SN12C it was > 100 µM (inactive); in the experiment on SW-620, 41.7 µM (inactive); in the experiment with SNB-75 it was 31.3 µM (inactive); with 786-0, > 100 µM (inactive); in the experiment on SK-MEL-5 it was 78.2 µM (inactive). The GI50 in the experiment on UO-31 is > 100 µM (inactive); in the experiment on HOP-92 it was > 100 µM (inactive); in the experiment on NCI-H522 it was > 100 µM (inactive); in the experiment on OVCAR-3 it was 80 µM (inactive); in the experiment with HCT-15, 83.8 µM.

Regarding `CC1=N/C(=C\c2ccc(/C=C3/N=C(C)OC3=O)cc2)C(=O)O1`, the GI50 with ACHN, with UACC-62, in the experiment with Malme-3M, in the experiment with HT-29, with SK-MEL-2 and in the experiment on OVCAR-4 was > 100 µM (inactive) in each case. Also, the GI50 with SN12C, with SW-620, with SNB-75, in the experiment with 786-0, in the experiment with SK-MEL-5 and in the experiment with UO-31 was > 100 µM (inactive) each time. Moreover, the GI50 in the experiment with HOP-92 was > 100 µM (inactive); in the experiment on NCI-H522 it was > 100 µM (inactive); in the experiment with OVCAR-3, > 100 µM (inactive); in the experiment on HCT-15, above 100 µM.

For `O=C(CCc1cc(-c2ccc(F)cc2)n[nH]1)N(Cc1ccccc1)Cc1ccccc1`, the GI50 in the experiment with ACHN, in the experiment on NCI-H460, in the experiment on UACC-62, in the experiment with Malme-3M, in the experiment on HT-29 and in the experiment with SK-MEL-2 was > 100 µM (inactive) in each case. Besides, the GI50 with SN12C, in the experiment on SW-620, in the experiment with SNB-75, in the experiment on 786-0, in the experiment with SK-MEL-5 and in the experiment with UO-31 was > 100 µM (inactive) in each case. Also, the GI50 in the experiment with HOP-92 was > 100 µM (inactive); with NCI-H522, > 100 µM (inactive); with OVCAR-3, > 100 µM (inactive); in the experiment on HCT-15 it was above 100 µM.

For `CCN(CC)C(=O)CCn1cc(F)c(=O)[nH]c1=O`, the GI50 in the experiment on ACHN, in the experiment with NCI-H460, in the experiment with HL-60, with UACC-62, with Malme-3M and in the experiment on HT-29 was > 100 µM (inactive) in each case. For the same compound, the GI50 with SK-MEL-2 is > 100 µM (inactive); in the experiment with OVCAR-4 it was > 100 µM (inactive); in the experiment with SN12C, > 100 µM (inactive); with SW-620 it was > 100 µM (inactive); in the experiment with SNB-75, 4.68 µM (inactive); with 786-0 it was > 100 µM (inactive). In addition, the GI50 with SK-MEL-5 is > 100 µM (inactive); with UO-31, > 100 µM (inactive); in the experiment with NCI-H522 it was > 100 µM (inactive); in the experiment with OVCAR-3, > 100 µM (inactive); in the experiment on HCT-15 it was above 100 µM.

As to `Nc1nnc(NC(=O)C2=NS(=O)(=O)c3cc(S(N)(=O)=O)c(Cl)cc3N2)[nH]1`, the GI50 with ACHN, in the experiment with NCI-H460, with UACC-62, in the experiment with Malme-3M, in the experiment with HT-29 and with OVCAR-4 was > 100 µM (inactive) throughout. Also, the GI50 with SN12C, with SW-620, in the experiment on SNB-75, in the experiment on 786-0, in the experiment on SK-MEL-5 and in the experiment on UO-31 was > 100 µM (inactive) in each case. Moreover, the GI50 is > 100 µM (inactive) in the experiment with HOP-92, > 100 µM (inactive) in the experiment on NCI-H522, > 100 µM (inactive) with OVCAR-3 and above 100 µM with HCT-15.

Take `COc1cccc(N2C(=O)c3c(c4[nH]c5ccccc5c4c4ccc(C(C)(C)C)cc34)C2=O)c1`: the GI50 in the experiment with ACHN, with NCI-H460, in the experiment on UACC-62, in the experiment with Malme-3M, in the experiment with SK-MEL-2 and in the experiment with OVCAR-4 was > 100 µM (inactive) each time. The GI50 in the experiment with SN12C, with SW-620, in the experiment on SNB-75, in the experiment on 786-0, with SK-MEL-5 and in the experiment with UO-31 was > 100 µM (inactive) in each case. Also, the GI50 is > 100 µM (inactive) in the experiment on HOP-92, > 100 µM (inactive) in the experiment with NCI-H522, > 100 µM (inactive) in the experiment with OVCAR-3 and above 100 µM with HCT-15.
